US8343996B2, “Azaquinolinone derivatives and uses thereof” (AstraZeneca AB, priority 2008, dated 2013)
Several values for one entry are separate records, joined by “and”; a condition that tells them apart may be missing. Equal entries are not always repeated.

The molecules below were run on farnesyl transferase (FTase) (assay: Cytosolic Ras assay for measurement of farnesyl transferase activity (RAS Cell Assay)). Details: COS-7 cells, 24 hr treatment in 0.2% DMSO; cytosolic Ras by Western blot, Ras/actin ratio.
Type: cell-based, African green monkey
Text: Ras is a small GTP binding protein whose farnesylation and consequent membrane association can be reduced by inhibition of farnesyl transferase (Appels et al., Oncologist 10:565-578, 2005; Basso et al., J. Lipid Res. 47:15-31, 2006; Tamanoi, Trends Biochem. Sci. 18:349-353, 1993; each of which is incorporated herein by reference). […] Treatment with a compound of the invention reduces the farnesylation and membrane association of Ras, leading to accumulation of Ras in the cytosol of the cells. An assay was developed to monitor FTase activity, based on the amount of Ras present in the cytosolic fraction of COS-7 cells after FTI treatment. On day 0, COS-7 cells were passaged into 6-well plates at a density of 4×10^5 cells/well. Beginning on day 1, cells were treated with a compound of the invention in 0.2% DMSO for 24 hr. On day 2, cells were lysed by passage through a 25 gauge needle 10 times in 100 μl Buffer 1 (50 mM Tris, 140 mM NaCl, 2 mM EDTA, protease inhibitor cocktail, pH 7.4) and lysates were centrifuged at 16,000 g for 30 min to isolate the cytosolic fraction (supernatant). The cytosolic fraction was analyzed by Western blot using anti-Ras antibody and anti-actin antibody for loading control. Results were quantified based on densitometric analysis of Ras signal normalized to actin signal (Ras/actin ratio). Treatment with a compound of the invention increases the amount of Ras in the cytosolic fraction in a dose-dependent manner. Using this method, compounds of the invention were analyzed for their ability to inhibit FTase activity, in that an increase in the Ras/actin ratio indicates inhibition of FTase.

IC50 | SMILES
3.9 nM and 2 nM | COc1cccc(-c2cc(=O)n(C)c3ncc([C@](N)(c4ccc(Cl)cc4)c4cncn4C)cc23)c1 [Compound 5a, 6-(amino(4-chlorophenyl)(1-methyl-1H-imidazol-5-yl)methyl)-4-(3-methoxyphenyl)-1-methyl-1,8-naphthyridin-2(1H)-one]
190 nM | COc1cccc(-c2cc(=O)n(C)c3ncc([C@@](O)(c4ccc(Cl)cc4)c4cncn4C)cc23)c1 [Compound 6b, 6-((4-chlorophenyl)(hydroxy)(1-methyl-1H-imidazol-5-yl)methyl)-4-(3-methoxyphenyl)-1-methyl-1,8-naphthyridin-2(1H)-one]
0.57 nM and 0.54 nM | C#Cc1cccc(-c2cc(=O)n(C)c3ncc([C@](O)(c4ccc(Cl)cc4)c4cncn4C)cc23)c1 [Compound 4b]
300 nM | C#Cc1cccc(-c2cc(=O)n(C)c3ncc([C@@](O)(c4ccc(Cl)cc4)c4cncn4C)cc23)c1 [Compound 4a]
2.3 nM and 4.2 nM | COc1cccc(-c2cc(=O)n(C)c3ncc([C@](O)(c4ccc(Cl)cc4)c4cncn4C)cc23)c1 [Compound 6a, 6-((4-chlorophenyl)(hydroxy)(1-methyl-1H-imidazol-5-yl)methyl)-4-(3-methoxyphenyl)-1-methyl-1,8-naphthyridin-2(1H)-one]
300 nM | COc1cccc(-c2cc(=O)n(C)c3ncc([C@@](N)(c4ccc(Cl)cc4)c4cncn4C)cc23)c1 [Compound 5b, 6-(amino(4-chlorophenyl)(1-methyl-1H-imidazol-5-yl)methyl)-4-(3-methoxyphenyl)-1-methyl-1,8-naphthyridin-2(1H)-one]
